Source: patent publication US20070275962A1, “Heterobicyclic Compounds as Pharmaceutically Active Agents” (GPC BIOTECH AG, priority 2003, published 2007)

Experiments:
cMet GST-HIS = target: T1, cMet GST-HIS (Homo sapiens, UniProt P08581); assay: General kinase assay: cMet; format: biochemical; details: concentration 10 μM; read-out: Inhibitory effect on Target cMet GST-HIS
T1 construct: GST; His
Method: (§1) General Assay Protocol for all Kinases [[[…]]] [[[…]]] Reaction Buffer: Final Assay Concentrations: [[[…]]] Pipetting Sequence: • 1) Add 8 μl 50 μM MBP in Reaction Buffer to each well of Assay Plate • 2) Add 10 μl 500 mM EDTA in H2O to C- wells • 3) Add 8 μl 62.5 μCi/ml Adenosine 5'-[γ-^33P]triphosphate+5 μM ATP in Reaction Buffer to each well • 4) Add 8 μl 5 fold concentrated inhibitor in 5% DMSO in Reaction Buffer to each well except to C- and C+ wells • 5) Add 8 μl 5% DMSO in Reaction Buffer to C- and C+ wells • 6) Add 8 μl 5 fold concentrated kinase in Reaction Buffer to each well • 7) Incubate 1 hr at room temperature • 8) Add 10 μl 50 mM EDTA in H2O to each well except to C- wells • 9) Prepare MAPH plates by adding 200 μl 0.75% H3PO4 to each well • 10) Exhaust 0.75% H3PO4 using Millipore vacuum station • 11) Add 60 μl 0.75% H3PO4 to each well of MAPH Filter Plate • 12) Transfer 30 μl sample per well from Assay Plate to corresponding well of MAPH Filter Plate • 13) Incubate 30 min at room temperature • 14) Wash each well of MAPH Filter Plates 3× with 200 μl 0.75% H3PO4 using Millipore vacuum station • 15) Add 20 μl Szintilation Liquid to each well of MAPH Filter Plate • 16) Seal MAPH Filter Plate • 17) Store MAPH Filter Plate 30 min in darkness • 18) Quantify radioactivity

EGFR GST-HIS = target: T2, EGFR GST-HIS (Homo sapiens, UniProt P00533); assay: General kinase assay: EGFR; format: biochemical; details: concentration 10 μM; read-out: Inhibitory effect on Target EGFR GST-HIS
T2 construct: GST; His
Method: as §1

CK1-alpha GST = target: T3, CK1-alpha GST (Homo sapiens, UniProt P48729); assay: General kinase assay: CK1-alpha; format: biochemical; details: concentration 10 μM; read-out: Inhibitory effect on Target CK1-alpha GST
T3 construct: GST
Method: as §1

GSK-3beta HIS = target: T4, GSK-3beta HIS (Homo sapiens, UniProt P49841); assay: General kinase assay: GSK-3beta; format: biochemical; details: concentration 10 μM; read-out: Inhibitory effect on Target GSK-3beta HIS
T4 construct: His
Method: as §1

SRPK1 GST = target: T5, SRPK1 GST (Homo sapiens, UniProt Q96SB4); assay: General kinase assay: SRPK1; format: biochemical; details: concentration 10 μM; read-out: Inhibitory effect on Target SRPK1 GST
T5 construct: GST
Method: as §1

CDK2/CycA = CDK2/CycA (Homo sapiens, UniProt P24941); assay: General kinase assay: CDK2/CycA; format: biochemical; details: concentration 10 μM; read-out: Inhibitory effect on Target CDK2/CycA
Method: as §1

[1] = target: T6, mycobacterial protein kinase G (PknG) (Mycobacterium tuberculosis, UniProt P9WI73); assay: biochemical; details: read-out: Inhibition of PknG (IC50, [μM])
T6 construct: GST; made in house; host or cells: E. coli BL21

RICK-STREP 1 = target: T7, RICK-STREP 1 (Homo sapiens, UniProt O43353); assay: General kinase assay: RICK; format: biochemical; details: concentration 10 μM; read-out: Inhibitory effect on Target RICK-STREP 1
T7 construct: Strep
Method: as §1

Kit human GST = target: T8, Kit human GST (Homo sapiens, UniProt P10721); assay: General kinase assay: Kit; format: biochemical; details: concentration 10 μM; read-out: Inhibitory effect on Target Kit human GST
T8 construct: GST
Method: as §1

PDGFRbeta GST = target: T9, PDGFRbeta GST (Homo sapiens, UniProt P09619); assay: General kinase assay: PDGFRbeta; format: biochemical; details: concentration 10 μM; read-out: Inhibitory effect on Target PDGFRbeta GST
T9 construct: GST
Method: as §1

c-Src HIS = target: T10, c-Src HIS (Homo sapiens, UniProt P12931); assay: General kinase assay: c-Src; format: biochemical; details: concentration 10 μM; read-out: Inhibitory effect on Target c-Src HIS
T10 construct: His
Method: as §1

IKKbeta HIS = target: T11, IKKbeta HIS (Homo sapiens, UniProt O14920); assay: General kinase assay: IKKbeta; format: biochemical; details: concentration 10 μM; read-out: Inhibitory effect on Target IKKbeta HIS
T11 construct: His
T11 sequence (O14920 1-756): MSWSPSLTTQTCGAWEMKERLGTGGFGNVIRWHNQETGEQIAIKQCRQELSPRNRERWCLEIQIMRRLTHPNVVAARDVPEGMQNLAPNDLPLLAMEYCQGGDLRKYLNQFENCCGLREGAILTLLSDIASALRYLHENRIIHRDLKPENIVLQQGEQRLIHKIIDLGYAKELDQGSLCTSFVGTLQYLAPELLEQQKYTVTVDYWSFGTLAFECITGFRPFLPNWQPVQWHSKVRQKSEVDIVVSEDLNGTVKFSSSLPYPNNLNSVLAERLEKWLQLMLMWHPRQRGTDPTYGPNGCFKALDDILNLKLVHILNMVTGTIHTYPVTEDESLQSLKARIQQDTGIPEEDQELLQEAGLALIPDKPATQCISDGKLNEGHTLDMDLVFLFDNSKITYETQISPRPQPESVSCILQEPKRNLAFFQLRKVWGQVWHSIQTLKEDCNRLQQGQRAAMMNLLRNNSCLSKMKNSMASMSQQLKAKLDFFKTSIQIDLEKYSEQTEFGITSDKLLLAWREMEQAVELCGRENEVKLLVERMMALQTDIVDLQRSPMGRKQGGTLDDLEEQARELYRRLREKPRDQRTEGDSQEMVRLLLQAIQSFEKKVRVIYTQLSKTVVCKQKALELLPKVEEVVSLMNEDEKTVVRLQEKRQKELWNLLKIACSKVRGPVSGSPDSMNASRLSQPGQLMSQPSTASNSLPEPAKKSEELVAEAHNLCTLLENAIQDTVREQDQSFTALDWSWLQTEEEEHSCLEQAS
Method: as §1

T4 sequence (P49841 whole entry): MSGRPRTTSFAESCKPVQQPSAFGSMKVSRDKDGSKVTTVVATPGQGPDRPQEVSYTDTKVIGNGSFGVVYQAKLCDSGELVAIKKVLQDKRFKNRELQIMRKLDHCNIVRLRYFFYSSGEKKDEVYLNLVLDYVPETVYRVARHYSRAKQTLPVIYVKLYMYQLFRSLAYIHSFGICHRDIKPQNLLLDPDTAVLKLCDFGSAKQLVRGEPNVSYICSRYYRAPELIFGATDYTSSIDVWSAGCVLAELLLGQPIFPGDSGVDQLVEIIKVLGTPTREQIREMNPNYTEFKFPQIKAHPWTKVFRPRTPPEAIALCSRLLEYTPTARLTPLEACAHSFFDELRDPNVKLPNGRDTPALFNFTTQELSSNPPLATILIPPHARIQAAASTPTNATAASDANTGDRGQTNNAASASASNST
T2 sequence (P00533 25-1210): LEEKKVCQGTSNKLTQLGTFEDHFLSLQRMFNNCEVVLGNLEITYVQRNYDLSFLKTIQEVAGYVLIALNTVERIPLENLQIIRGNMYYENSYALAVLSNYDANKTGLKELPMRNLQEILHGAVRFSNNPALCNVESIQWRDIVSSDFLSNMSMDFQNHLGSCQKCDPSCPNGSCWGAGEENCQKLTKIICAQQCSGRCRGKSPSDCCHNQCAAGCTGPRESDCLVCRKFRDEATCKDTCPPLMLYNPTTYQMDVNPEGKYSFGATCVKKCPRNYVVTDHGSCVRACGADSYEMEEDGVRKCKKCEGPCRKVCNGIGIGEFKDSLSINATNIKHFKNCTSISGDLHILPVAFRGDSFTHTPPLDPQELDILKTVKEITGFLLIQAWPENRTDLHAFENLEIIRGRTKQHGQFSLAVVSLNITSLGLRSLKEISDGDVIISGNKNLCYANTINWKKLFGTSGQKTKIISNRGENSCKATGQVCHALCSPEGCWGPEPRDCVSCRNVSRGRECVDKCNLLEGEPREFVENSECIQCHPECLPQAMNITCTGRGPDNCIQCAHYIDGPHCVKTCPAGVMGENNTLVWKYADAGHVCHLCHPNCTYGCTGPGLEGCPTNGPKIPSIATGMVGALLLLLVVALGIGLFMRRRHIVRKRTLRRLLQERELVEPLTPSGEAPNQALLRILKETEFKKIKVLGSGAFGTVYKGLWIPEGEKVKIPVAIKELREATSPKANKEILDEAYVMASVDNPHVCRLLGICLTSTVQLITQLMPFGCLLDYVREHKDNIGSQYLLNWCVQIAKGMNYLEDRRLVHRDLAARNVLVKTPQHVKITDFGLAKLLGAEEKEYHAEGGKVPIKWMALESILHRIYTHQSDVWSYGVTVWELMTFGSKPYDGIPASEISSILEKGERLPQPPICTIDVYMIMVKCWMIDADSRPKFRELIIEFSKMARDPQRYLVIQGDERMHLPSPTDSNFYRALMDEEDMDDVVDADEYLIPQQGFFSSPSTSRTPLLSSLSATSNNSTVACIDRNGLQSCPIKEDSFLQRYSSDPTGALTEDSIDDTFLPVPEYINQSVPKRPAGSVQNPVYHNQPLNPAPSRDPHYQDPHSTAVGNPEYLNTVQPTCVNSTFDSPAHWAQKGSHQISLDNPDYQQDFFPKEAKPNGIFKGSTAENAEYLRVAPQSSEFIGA
T7 sequence (O43353 whole entry): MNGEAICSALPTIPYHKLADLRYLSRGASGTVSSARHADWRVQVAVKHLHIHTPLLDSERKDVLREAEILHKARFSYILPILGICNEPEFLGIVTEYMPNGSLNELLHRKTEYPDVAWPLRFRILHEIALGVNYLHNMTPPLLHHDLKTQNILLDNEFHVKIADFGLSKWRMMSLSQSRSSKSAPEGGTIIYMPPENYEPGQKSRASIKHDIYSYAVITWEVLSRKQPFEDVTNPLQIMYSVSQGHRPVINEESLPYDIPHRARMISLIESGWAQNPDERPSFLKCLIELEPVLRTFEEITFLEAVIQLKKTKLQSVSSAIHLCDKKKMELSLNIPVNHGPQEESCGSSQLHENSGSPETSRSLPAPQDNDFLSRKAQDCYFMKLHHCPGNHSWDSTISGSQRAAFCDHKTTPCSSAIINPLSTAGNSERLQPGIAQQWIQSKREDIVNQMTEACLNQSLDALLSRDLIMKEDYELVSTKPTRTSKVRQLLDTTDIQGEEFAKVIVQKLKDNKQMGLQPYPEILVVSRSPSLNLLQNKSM
T3 sequence (P48729 whole entry): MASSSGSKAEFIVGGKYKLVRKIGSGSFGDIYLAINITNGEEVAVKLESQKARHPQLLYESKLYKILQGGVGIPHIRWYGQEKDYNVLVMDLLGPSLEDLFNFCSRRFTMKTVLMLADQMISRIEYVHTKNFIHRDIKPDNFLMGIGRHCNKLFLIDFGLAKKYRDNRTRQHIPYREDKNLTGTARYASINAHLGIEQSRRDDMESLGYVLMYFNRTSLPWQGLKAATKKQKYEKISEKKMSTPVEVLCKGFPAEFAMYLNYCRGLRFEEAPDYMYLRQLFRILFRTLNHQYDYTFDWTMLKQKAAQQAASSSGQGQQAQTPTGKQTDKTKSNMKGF
T5 sequence (Q96SB4 whole entry): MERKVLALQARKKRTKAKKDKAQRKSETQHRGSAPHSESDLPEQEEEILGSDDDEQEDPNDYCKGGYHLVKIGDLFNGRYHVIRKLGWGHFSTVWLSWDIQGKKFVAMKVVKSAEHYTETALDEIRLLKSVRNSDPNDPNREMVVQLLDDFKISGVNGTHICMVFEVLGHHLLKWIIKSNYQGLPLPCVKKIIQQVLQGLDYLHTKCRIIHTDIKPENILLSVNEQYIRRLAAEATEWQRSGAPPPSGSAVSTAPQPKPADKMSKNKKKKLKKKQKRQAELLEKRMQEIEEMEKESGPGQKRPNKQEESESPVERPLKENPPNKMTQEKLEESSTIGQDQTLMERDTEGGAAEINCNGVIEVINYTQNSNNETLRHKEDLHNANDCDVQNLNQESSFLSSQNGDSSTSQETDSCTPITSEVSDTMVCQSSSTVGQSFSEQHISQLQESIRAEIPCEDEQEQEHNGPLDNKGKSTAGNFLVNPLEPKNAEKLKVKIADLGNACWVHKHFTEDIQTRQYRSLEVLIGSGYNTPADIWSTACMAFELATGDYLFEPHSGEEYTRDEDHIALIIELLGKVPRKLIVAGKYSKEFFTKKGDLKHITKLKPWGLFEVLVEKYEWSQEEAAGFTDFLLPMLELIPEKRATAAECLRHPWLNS
T10 sequence (P12931 whole entry): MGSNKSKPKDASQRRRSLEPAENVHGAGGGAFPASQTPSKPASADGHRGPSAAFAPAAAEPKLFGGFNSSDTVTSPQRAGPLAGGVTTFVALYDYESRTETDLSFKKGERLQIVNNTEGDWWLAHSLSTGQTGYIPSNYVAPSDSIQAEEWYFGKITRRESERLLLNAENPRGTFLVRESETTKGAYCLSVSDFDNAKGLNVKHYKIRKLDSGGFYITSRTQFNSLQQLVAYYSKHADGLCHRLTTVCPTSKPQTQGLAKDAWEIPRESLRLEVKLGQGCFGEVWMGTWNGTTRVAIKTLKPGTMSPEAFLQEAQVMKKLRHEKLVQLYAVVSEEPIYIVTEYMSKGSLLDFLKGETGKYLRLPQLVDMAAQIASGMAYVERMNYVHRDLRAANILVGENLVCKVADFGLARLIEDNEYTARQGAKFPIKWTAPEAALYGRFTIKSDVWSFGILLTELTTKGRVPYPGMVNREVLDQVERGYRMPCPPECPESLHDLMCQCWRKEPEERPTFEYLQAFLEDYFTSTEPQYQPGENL
T6 sequence (P9WI73 whole entry): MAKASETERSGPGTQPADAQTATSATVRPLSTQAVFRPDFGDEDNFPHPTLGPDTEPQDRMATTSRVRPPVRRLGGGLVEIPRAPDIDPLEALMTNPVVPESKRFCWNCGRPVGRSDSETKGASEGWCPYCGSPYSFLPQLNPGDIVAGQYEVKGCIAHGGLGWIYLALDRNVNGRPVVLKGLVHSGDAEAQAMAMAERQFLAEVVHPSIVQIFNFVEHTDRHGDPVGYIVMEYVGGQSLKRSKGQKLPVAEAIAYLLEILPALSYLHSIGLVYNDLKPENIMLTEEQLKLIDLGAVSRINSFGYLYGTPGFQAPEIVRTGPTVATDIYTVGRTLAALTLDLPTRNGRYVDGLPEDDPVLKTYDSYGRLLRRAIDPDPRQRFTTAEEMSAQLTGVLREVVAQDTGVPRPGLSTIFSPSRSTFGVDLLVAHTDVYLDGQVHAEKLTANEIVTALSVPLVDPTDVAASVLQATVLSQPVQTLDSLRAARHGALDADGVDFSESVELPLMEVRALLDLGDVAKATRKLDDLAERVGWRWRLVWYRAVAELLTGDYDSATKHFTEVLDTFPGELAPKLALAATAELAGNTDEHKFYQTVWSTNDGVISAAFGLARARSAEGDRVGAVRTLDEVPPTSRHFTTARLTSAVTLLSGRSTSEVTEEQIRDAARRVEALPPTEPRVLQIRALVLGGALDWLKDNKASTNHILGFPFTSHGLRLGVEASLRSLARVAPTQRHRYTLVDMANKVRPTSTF

Row | Compound | inhibition at 10 µM (cMet GST-HIS) [%] | inhibition at 10 µM (EGFR GST-HIS) [%] | inhibition at 10 µM (CK1-alpha GST) [%] | inhibition at 10 µM (GSK-3beta HIS) [%] | inhibition at 10 µM (SRPK1 GST) [%] | inhibition at 10 µM (CDK2/CycA) [%] | IC50 [1] [µM] | inhibition at 10 µM (RICK-STREP 1) [%] | melting point | inhibition at 10 µM (Kit human GST) [%] | inhibition at 10 µM (PDGFRbeta GST) [%] | inhibition at 10 µM (c-Src HIS) [%] | inhibition at 10 µM (IKKbeta HIS) [%]
1 | NC(=O)c1c(NC(=O)C2CC2)sc2c1CCC(Br)(Br)C2=O [Compound D67, 6,6-Dibromo-2-(cyclopropanecarbonyl-amino)-7-oxo-4,5,6,7-tetrahydro-benzo[b]thiophene-3-carboxylic acid amide] | > 50 | > 50 | > 50 | > 50 | > 50 | > 50 | 0.1 to 1 | > 50 |  |  |  |  | 
2 | NS(=O)(=O)c1c(NC(=O)C2CC2)sc2c1CCCC2 [Compound D86, Cyclopropanecarboxylic acid (3-sulfamoyl-4,5,6,7-tetrahydro-benzo[b]thiophen-2-yl)-amide] |  |  |  |  |  |  |  |  | 235 to 238 °C (dec.) |  |  |  | 
3 | NN=C1CCc2c(sc(NC(=O)C3CC3)c2C(N)=O)C1 [Compound D115, 2-(Cyclopropanecarbonyl-amino)-6-hydrazono-4,5,6,7-tetrahydro-benzo[b]thiophene-3-carboxylic acid amide] |  | > 50 | > 50 | > 50 |  | > 50 | 0.1 to 1 | > 50 |  | > 50 | > 50 |  | 
4 | NC(=O)c1c(NC(=O)Nc2ccc(F)cc2)sc2c1CCC(=O)C2 [Compound D121, 2-[3-(4-Fluoro-phenyl)-ureido]-6-oxo-4,5,6,7-tetrahydro-benzo[b]thiophene-3-carboxylic acid amide] |  | > 50 | > 50 | > 50 | > 50 | > 50 |  | > 50 |  |  |  | > 50 | 
5 | NC(=O)c1c(NC(=O)Nc2ccc(F)cc2)sc2c1CCC(O)C2 (stereo not shown) [Compound D142, 2-[3-(4-Fluoro-phenyl)-ureido]-6-hydroxy-4,5,6,7-tetrahydro-benzo[b]thiophene-3-carboxylic acid amide] |  |  | > 50 |  | > 50 | > 50 |  | > 50 |  |  |  | > 50 | > 50
6 | O=C(Nc1sc2c(c1S(=O)(=O)O)CCCC2)C1CC1 [Compound D216, 2-(Cyclopropanecarbonyl-amino)-4,5,6,7-tetrahydro-benzo[b]thiophene-3-sulfonic acid] |  |  |  |  |  |  |  |  | 225 to 230 °C (dec.) |  |  |  | 
